The record followed here is patent publication US8815923B2, “Therapeutic compounds” (Allergan, Inc., priority 2007, dated 2014).

What all share (type): cell-based
One test concerns the target T1, alpha2B receptor (Homo sapiens, UniProt P18089).
T1 construct: expressed in transfected cells; host or cells: NIH-3T3
T1 sequence (P18089 1-450): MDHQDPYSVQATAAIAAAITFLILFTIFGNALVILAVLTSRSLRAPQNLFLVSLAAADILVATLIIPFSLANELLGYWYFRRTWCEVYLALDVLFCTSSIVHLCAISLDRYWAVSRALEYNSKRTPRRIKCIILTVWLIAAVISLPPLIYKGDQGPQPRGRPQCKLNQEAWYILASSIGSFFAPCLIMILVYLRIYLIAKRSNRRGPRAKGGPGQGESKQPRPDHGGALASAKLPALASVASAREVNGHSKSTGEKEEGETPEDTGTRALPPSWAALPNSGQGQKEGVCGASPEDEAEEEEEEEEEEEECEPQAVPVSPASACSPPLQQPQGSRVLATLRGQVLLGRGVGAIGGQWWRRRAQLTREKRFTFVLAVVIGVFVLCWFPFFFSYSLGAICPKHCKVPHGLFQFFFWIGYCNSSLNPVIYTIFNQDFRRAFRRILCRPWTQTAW
As to the kind of experiment: RSAT assay, Alpha 2B. The settings on record: for EC50: RSAT, transfected NIH-3T3 cells with Gq/i5, nd = not determinable at concentrations less than 10 micromolar; for Emax: read-out: Alpha 2B IA (intrinsic activity), in parentheses. The method, then: (§1) Receptor Selection and Amplification Technology (RSAT) Assay
(§2) The RSAT assay measures a receptor-mediated loss of contact inhibition that results in selective proliferation of receptor-containing cells in a mixed population of confluent cells. The increase in cell number is assessed with an appropriate transfected marker gene such as β-galactosidase, the activity of which can be easily measured in a 96-well format. Receptors that activate the G protein, Gq, elicit this response. Alpha2 receptors, which normally couple to Gi, activate the RSAT response when coexpressed with a hybrid Gq protein that has a Gi receptor recognition domain, called Gq/i5.
(§3) NIH-3T3 cells are plated at a density of 2×10^6 cells in 15 cm dishes and maintained in Dulbecco's modified Eagle's medium supplemented with 10% calf serum. One day later, cells are cotransfected by calcium phosphate precipitation with mammalian expression plasmids encoding p-SV-β-galactosidase (5-10 μg), receptor (1-2 μg) and G protein (1-2 μg). 40 μg salmon sperm DNA may also be included in the transfection mixture. Fresh media is added on the following day and 1-2 days later, cells are harvested and frozen in 50 assay aliquots. Cells are thawed and 100 μl added to 100 μl aliquots of various concentrations of drugs in triplicate in 96-well dishes. Incubations continue 72-96 hr at 37° C. After washing with phosphate-buffered saline, β-galactosidase enzyme activity is determined by adding 200 μl of the chromogenic substrate (consisting of 3.5 mM o-nitrophenyl-β-D-galactopyranoside and 0.5% nonidet P-40 in phosphate buffered saline), incubating overnight at 30° C. and measuring optical density at 420 nm. The absorbance is a measure of enzyme activity, which depends on cell number and reflects a receptor-mediated cell proliferation. The efficacy or intrinsic activity is calculated as a ratio of the maximal effect of the drug to the maximal effect of a standard full agonist for each receptor subtype. Brimonidine, also called UK14304, the chemical structure of which is shown below, is used as the standard agonist for the alpha2A, alpha2B and alpha2C receptors. The EC50 is the concentration at which the drug effect is half of its maximal effect.
(§4) EC50 values are nanomolar. ND stands for “not determinable” at concentrations less than 10 micromolar. IA stands for “intrinsic activity.”

The target of another test is T2, alpha2C receptor (Homo sapiens, UniProt P18825).
T2 construct: expressed in transfected cells; host or cells: NIH-3T3
T2 sequence (P18825 1-462): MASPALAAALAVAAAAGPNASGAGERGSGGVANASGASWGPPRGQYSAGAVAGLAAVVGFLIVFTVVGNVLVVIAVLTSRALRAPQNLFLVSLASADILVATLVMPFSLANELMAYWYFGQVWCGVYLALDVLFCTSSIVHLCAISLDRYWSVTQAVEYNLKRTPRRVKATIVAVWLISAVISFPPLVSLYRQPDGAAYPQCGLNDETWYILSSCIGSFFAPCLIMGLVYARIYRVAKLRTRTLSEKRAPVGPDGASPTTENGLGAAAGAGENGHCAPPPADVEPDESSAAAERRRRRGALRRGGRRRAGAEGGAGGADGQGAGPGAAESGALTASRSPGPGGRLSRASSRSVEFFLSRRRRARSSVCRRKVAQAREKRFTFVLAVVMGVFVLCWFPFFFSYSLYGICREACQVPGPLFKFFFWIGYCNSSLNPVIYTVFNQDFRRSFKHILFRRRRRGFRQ
As to the kind of experiment: RSAT assay, Alpha 2C. The note with it: for EC50: RSAT, transfected NIH-3T3 cells with Gq/i5, nd = not determinable at concentrations less than 10 micromolar; for Emax: read-out: Alpha 2C IA (intrinsic activity), in parentheses. The method, then: as §1, §2, §3, §4

The target in another test is T3, alpha2A receptor (Homo sapiens, UniProt P08913).
T3 construct: expressed in transfected cells; host or cells: NIH-3T3
T3 sequence (P08913 1-465): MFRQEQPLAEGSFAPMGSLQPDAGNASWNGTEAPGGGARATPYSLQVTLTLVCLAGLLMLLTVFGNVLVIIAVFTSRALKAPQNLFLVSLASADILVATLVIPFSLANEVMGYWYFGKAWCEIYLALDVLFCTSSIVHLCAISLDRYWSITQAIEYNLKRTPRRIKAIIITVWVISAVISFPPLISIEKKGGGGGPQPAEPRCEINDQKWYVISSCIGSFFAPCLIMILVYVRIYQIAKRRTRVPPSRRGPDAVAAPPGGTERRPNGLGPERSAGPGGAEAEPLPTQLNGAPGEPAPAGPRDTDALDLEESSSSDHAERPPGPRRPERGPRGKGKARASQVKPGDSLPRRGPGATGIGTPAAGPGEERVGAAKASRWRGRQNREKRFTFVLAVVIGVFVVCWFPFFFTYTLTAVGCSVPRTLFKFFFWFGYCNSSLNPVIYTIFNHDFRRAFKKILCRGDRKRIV
The experiment in a line: RSAT assay, Alpha 2A. The note with it: for Emax: read-out: Alpha 2A IA (intrinsic activity), in parentheses. How it is done:
as §1, §2, §3, §4

The term EC50 denotes the concentration that produces a half-maximal response. A low value points to an effect from little substance.

As for `c1ccc2c(c1)CCC[C@@H]2NC1=NCCN1` [compound 323], the EC50 was 49 nM on alpha2B receptor and 308 nM on alpha2C receptor. The Emax on alpha2B receptor turned out to be 102%; at alpha2C receptor, 42%; at alpha2A receptor it was 12%.

As to `c1ccc2c(c1)CCCC2NC1=NCCN1` (stereo not drawn) [compound 639, (4,5-Dihydro-1H-imidazol-2-yl)-(1,2,3,4-tetrahydro-naphthalen-1-yl)amine], the EC50 at alpha2B receptor is 37 nM; on alpha2C receptor, 179 nM. Besides, the Emax at alpha2B receptor is 84%; on alpha2C receptor it was 50%; at alpha2A receptor, 25%.

`Cc1cc(C)c2c(c1)C(NC1=NCCN1)CCC2` (stereo not drawn) [compound 904, (4,5-Dihydro-1H-imidazol-2-yl)-(5,7-dimethyl-1,2,3,4-tetrahydro-naphthalen-1-yl)-amine]: the EC50 on alpha2B receptor came to 68 nM; on alpha2A receptor (RSAT, transfected NIH-3T3 cells with Gq/i5, nd = not determinable at concentrations less than 10 micromolar), 1620 nM. For the same compound, the Emax at alpha2B receptor turned out to be 80%; at alpha2C receptor it was 4%; at alpha2A receptor it was 35%.
